Consider one molecule from patent US20250270159A1, “1-(CYCLOBUTANEMETHYLIDENE)-2, 4, 5-TRIMETHOXYBENZENE COMPOUND AND PREPARATION METHOD AND USE THEREOF” (CHENGDU XINRUI TAIKANG TECHNOLOGY CO., LTD., priority 2023, published 2025).

For series [1], the system named is Parkinson's disease (PD) mice, 6-OHDA method. As to the kind of experiment: 6-OHDA Parkinson's disease mice, rod-climbing experiment. It is filed as in vivo, C57 mice. To be noted: Group D, CTMB 20 mg/kg ip. How it is done:
The mice were randomly divided into a sham operation group (group S, given a blank emulsion with a volume equal to that of the administered group), a model group (group M, given a blank emulsion with a volume equal to that of the administered group), a CTMB group (20 mg/kg, group D), and a levodopa group (levodopa: benserazide hydrochloride=4:1, 12 mg/kg, group L), each group included 10-12 mice, and all of them were administered intraperitoneally.
Preoperatively, mice were fasted for 12 h, and mice were anesthetized with 4% isoflurane induction and maintained with 1.5% isoflurane. The mice were subsequently immobilized on a brain stereotaxic apparatus. The bregma and lambda points were exposed by gently wiping the cranial surface with a cotton swab after cutting the scalp. The stereotaxic apparatus was adjusted to align the heights of the bregma and lambda points, thereby leveling the skull. The bregma point was designated as the origin, the coordinates where the injection site was located were located, and the drill was used to drill a small hole in the skull above the injection site.
6-OHDA (12.5 μg/μL) was injected into the striatum region (AP+0.5 mm; ML+2.00 mm; DV-3.00 mm and-2.00 mm) of the mice, and 1 μL 6-OHDA was injected into each of the two points at a rate of 0.5 μL/min. The needle was left in place for 3 min after the injection was completed, and then the injection needle was lifted, and the scalp of the mice was sutured and disinfected. The sham operation group was injected with an equal volume of saline containing 0.02% ascorbic acid, and other operations were performed as above. After the procedure, the mice were placed in the cage at an appropriate temperature. After awakening from anesthesia, the mice were kept normally.
The rod-climbing experiment: the rod-climbing experiment was mainly used to test the limb movement ability of mice and to assess the symptoms of motor delay. This experiment evaluated the ability of mice to grasp and maneuver on a pole to descend to their home cage. A cork ball was fixed to an iron pole with a diameter of 1 cm and a length of 65 cm. The head of the mice was put down on the top of the pole, and the mice usually naturally descended down along the pole to return to their cage. The time for the mice to descend to the bottom was recorded. Results were averaged over 3 consecutive measurements.
The motor function of the mice was comprehensively assessed using the rod-climbing experiment and the hanging experiment at 1, 2, 3, and 4 weeks after drug administration.

Series [2] concerns ischemic stroke induced by the filament technique in rats. As to the kind of experiment: Long-term ischemic stroke (MCAO), neurological deficit score (mNSS). It is filed as in vivo. How it is done: The rats were randomly divided into a sham operation group (Sham group, given a blank emulsion with a volume equal to that of the high-dose CTMB group), a model group (Vehicle group, given a blank emulsion with a volume equal to that of the high-dose CTMB group), a low-dose CTMB group (CTMB-L group, 10 mg/kg), a high-dose CTMB group (CTMB-H group, 20 mg/kg), and an edaravone dexborneol injection concentrated solution group (EDB group, commercially available, 3 mg/kg). 10 rats were included in each group, which were administered by intraperitoneal injection. It should be noted that in the experiment, the mode of administration for rats was intraperitoneal injection, and a ratio of the effective dose of CTMB, the active ingredient in the emulsion injection, to the unit mass of the human body was within a range of 0.2 mg-4.0 mg/kg, which referred to the ratio of the effective dose of CTMB, the active ingredient in the emulsion injection, to the unit mass of the human body during intravenous infusion, which was extrapolated from the effective dose of the rats. Considering the different bioavailability, peak concentration, and peak time of the drug due to different species and different modes of administration, the effective dose of the active ingredient CTMB in the emulsion injection to the unit mass of human body was finally determined to be 0.2 mg-4.0 mg/kg through conversion.
The rats were fasted for 12 h before procedure, and the rats were anesthetized with 10% chloral hydrate (350 mg/kg, i.p.). The rats were fixed in the supine position, and the body temperature was maintained at about 37° C. For neck preparation, a median neck incision was made, the muscle and fascia were separated along the inner edge of the sternocleidomastoid muscle to expose the right side, the common carotid artery (CCA), external carotid artery (ECA), and internal carotid artery (ICA) were separated bluntly, and the lines were disposed of proximally in the CCA proximal end, ICA, and ECA for backup. The CCA proximal end and ECA were ligatured, and an arterial clip was used to temporarily close the ICA, then a small hole was poked at a position of CCA having about 4 mm from the bifurcation with a needle. The filament was inserted into the ICA through the CCA, the arterial clipped on ICA was loosened, and the filament was slowly advanced. When the mark on the filament reached the bifurcation and a slight resistance was felt, the thin wire at ICA was tightened, and saline was used to clean the wound and then suture was performed. The sham procedure was the same as the experimental group except that no filament was inserted. After anesthesia, the rats were raised normally.
Experimental materials, groups (n=10-15), modeling manner, and scoring criteria were the same as the acute phase of treatment. After 2 h of modeling by the filament technique, the drugs were immediately administered according to the grouped administration plan, and thereafter the drugs continued to be administered once a day for 14 days, and modified mNSS score was performed on days 1, 4, 7, and 14.

The subject of the next series is IL-6. As to the kind of experiment: IL-6 in cerebral cortex of TBI rats. It is filed as in vivo, SD rats. To be noted: 30 mg/kg ip 2 h after TBI; 24 h after administration; FIG. 3. As for the experimental part: The experimental grouping and drug administration plan were as follows. • Sham operation group (Group P): saline was given with the same volume as in the CTMB group; • Model group (T group): a blank emulsion was given with the same volume as in the CTMB group; • Medium dose group (Group M): a dose of 30 mg/kg of CTMB emulsion injection was given.
The experimental grouping and drug administration plan were the same as the test 3. After 2 h of the TBI modeling, different groups of rats were administered intraperitoneally. After 24 h of the administration, the rats were deeply anesthetized, the head was severed and the brain was removed, about 60-120 mg of hemisphere cortex was taken out from the hemisphere on the blood side, 10 times the volume of ice-cold centrifugal buffer used for biochemical assays was added, homogenization was carried out in an ice bath for 10 min, and centrifugation was carried out at 4° C. and 14000 rpm/min for 30 min. The supernatant was extracted, and inflammatory factors IL-1, IL-6, and TNF-α were tested according to the instructions of IL-1, IL-6, and TNF-α assay kits, respectively.

The mark [3] stands for this setting: CTMB-H 20 mg/kg ip once a day for 14 days.
Setting [4] is: CTMB-L 10 mg/kg ip once a day for 14 days.

Take `COc1cc(OC)c(OC)cc1C=C1CCC1` [CTMB, 1-(cyclobutylidenemethyl)-2,4,5-trimethoxybenzene]: in series [1], the “Rod-climbing time, 1 week of administration” value is recorded as 6.38 ± 1.22 s; the “Rod-climbing time, 2 weeks of administration” value is reported as 6.41 ± 1.12 s; the “Rod-climbing time, 3 weeks of administration” value was 5.50 ± 1.02^#, * s; the “Rod-climbing time, 4 weeks of administration” value is listed as 5.28 ± 0.92^#, * s. For the same molecule, the “Rod-climbing time, Before administration” value in series [1] (baseline 2 weeks after 6-OHDA) came out at 9.29 ± 1.92 s. Moreover, the “toxic side effects associated with administration” value in series [2] (10 and 20 mg/kg ip once a day for 14 days) is given as “No toxic side effects”. Besides, in series [2] (setting [3]), the “mNSS score, Day 1” value was 5.69 ± 2.13^##, **; the “mNSS score, Day 4” value is given as 3.75 ± 1.67^##, **; the “mNSS score, Day 7” value is recorded as 2.83 ± 1.17^##, *; the “mNSS score, Day 14” value is 2.45 ± 1.36^##, *. Further, in series [2] (setting [4]), the “mNSS score, Day 1” value is given as 6.45 ± 2.37^##, *; the “mNSS score, Day 4” value is reported as 3.65 ± 1.29^##, **; the “mNSS score, Day 7” value amounted to 3.38 ± 0.83; the “mNSS score, Day 14” value amounted to 2.94 ± 1.56. In addition, the “content of IL-6 in cerebral cortex tissue” value in the series on IL-6 is “significantly reduced”.
